Laboratory results as given in patent EP3366672B9, “BIPHENYL COMPOUND AND APPLICATION THEREOF” (Shenyang Sinochem Agrochemicals R & D Co., Ltd., priority 2015, dated 2017).

What was measured:
Type in all cases: in vivo
[1] = system: citrus red mite (Panonychuscitri); assay: Field trial against citrus red mite (Jiangxi, China)
Procedure: The trial was carried out in a 2-year-old Shatang orange orchard in Ganzhou city Jiangxi province, trifoliate orange trees were selected as stocks, the intervals between two plants was 1.50 × 2.50 m, the average height was 1.45 m and the crown width was 1.30 m. Two trees were selected in each plot, with random arrangement and 4 replications. Compound 1 (10% SC) was set at three different doses (100 mg/L, 50 mg/L and 25 mg/L), spirodiclofen (29% SC) was set at one dose (50 mg/L), and pyridaben (20% EC) was set at one dose (100 mg/L). MatabiSupergreen 16 Knapsack Sprayer 16 Liter was used to spray evenly with 2L of spraying volume for each plant. The plants were treated once in May at that time, adults, nymphs, eggs of citrus red mite all existed, with adults/eggs = 1/1.2. During the day the plants were treated, and the weather was good with the average temperature at 24°C. The first three days after treatment were all clear days. The number of mites was investigated before treatment and on the 1st, 3rd, 7th, 14th, 22nd and 28th day after treatment respectively. Two trees of each plot were investigated according to the five directions of the tree crown (east, south, west, north and central), 5 leaves in each direction were investigated to calculate the number of living mites, with 50 leaves each plot. The decline rate of mite population and corrected efficacy were calculated according to formulas below: The decline rate of mite population(%) = [(the average number of mite on each leaf; before treatment−the average number of mite on each leaf after treatment)/the; average number of mite on each leaf before treatment] × 100. [formula] Corrected efficacy(%) = [(the decline rate of mite population in treated area−the; decline rate of mite population in untreated area)/(100−the decline rate of mite; population in untreated area)] × 100. [formula]

[2] = system: egg of spider mite (Tetranychuscinnabarinus); assay: Greenhouse test against egg of spider mite, spray on bean leaf; conditions: eggs, after 5 days
Procedure: Two true leaves of bean plants were taken and one true leaf was removed. Then ten healthy female adult spider mites were put into the true leaf. The adult spider mites were removed after 24 h and the eggs were investigated. The solution of certain concentrations of test compounds was sprayed by using a sprinkler. Three replicates were set for each treatment. The untreated eggs were all incubated after 5 days. The unincubation of treated eggs in leaf was observed, and incubation inhibition rate of the eggs was determined.

[3] = system: deutonymph of spider mite (Tetranychuscinnabarinus); assay: Greenhouse test against deutonymph of spider mite, spray on bean leaves; conditions: after 72 h
Procedure: Ten healthy female adult spider mites (Tetranychuscinnabarinus) were put into two true leaves of bean plants. The adult spider mites were removed after 24 h and the eggs were to be continued incubating. After ten days, the number of deutonymph were investigated and recorded. The solution of certain concentrations of test compounds was sprayed by using a sprinkler. Three replicates were set for each treatment. Then the deutonymph of spider mites were maintained in standard observation room. After 72 h, the survival mites in each leaf were observed, and mortality of the mites was determined.

Q: What does the source list for `CCC(C)(C)C(=O)OC1=C(c2ccc(Cl)cc2Cl)C(=O)OC12CCCCC2` [spirodiclofen]?
A: Corrected efficacy (%) ([1]; 50 mg/L, The 1st day after treatment): 20%; Corrected efficacy (%) ([1]; 50 mg/L, The 3rd day after treatment): 48%; Corrected efficacy (%) ([1]; 50 mg/L, The 7th day after treatment): 63%; Corrected efficacy (%) ([1]; 50 mg/L, The 14th day after treatment): 80%; Corrected efficacy (%) ([1]; 50 mg/L, The 22nd day after treatment): 71%; Corrected efficacy (%) ([1]; 50 mg/L, The 28th day after treatment): 70%; Incubation inhibition rate (%) ([2]; 1mg/L): 37%; Incubation inhibition rate (%) ([2]; 5mg/L): 100%; Incubation inhibition rate (%) [2]: 13%

Q: For `CC(C)(C)c1ccc(CSc2cnn(C(C)(C)C)c(=O)c2Cl)cc1` [pyridaben], which “Corrected efficacy (%)” value ([1]; 100 mg/L, The 1st day after treatment) is on record?
A: 0%

Q: What about the “Corrected efficacy (%)” value ([1]; 100 mg/L, The 3rd day after treatment) of the same molecule?
A: 65%

Q: And the “Corrected efficacy (%)” value ([1]; 100 mg/L, The 7th day after treatment)?
A: 90%

Q: What about the “Corrected efficacy (%)” value ([1]; 100 mg/L, The 14th day after treatment) of the same molecule?
A: 93%

Q: What about the “Corrected efficacy (%)” value ([1]; 100 mg/L, The 22nd day after treatment) of the same molecule?
A: 92%

Q: What about the “Corrected efficacy (%)” value ([1]; 100 mg/L, The 28th day after treatment) of the same molecule?
A: 95%

Q: What about the “Mortality (%)” value ([3]; 0.25mg/L) of the same molecule?
A: 25%

Q: What about the “Mortality (%)” value ([3]; 0.5mg/L) of the same molecule?
A: 60%

Q: And the “Mortality (%)” value ([3]; 1mg/L)?
A: 84%
